Data reported in patent US20240246905A1 (University of Leicester, priority 2021, published 2024).
Converted amounts (≈) assume the structure as drawn.

Legend:
[1] = system: MRSA 252; experiment: MIC, broth micro-dilution; format: cell-based, Staphylococcus aureus; conditions: Staphylococcus aureus, read-out: MIC
Procedure, shortened: (§1)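 Broth micro-dilution followed CLSI 2017: 1:2 antibiotic dilutions in TSB were inoculated at 5×10^5 CFU/mL. OD was recorded every 12 min over 18 h at 37 °C, and MIC was derived from sigmoidal dose-response fits.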

[2] = system: MSSA 476; experiment: MIC, broth micro-dilution; format: cell-based, Staphylococcus aureus; conditions: Staphylococcus aureus, MSSA, read-out: MIC
Procedure, shortened: as §1

[3] = system: MRSA 252; experiment: Disc diffusion (Kirby-Bauer), zone of inhibition; format: cell-based, Staphylococcus aureus; conditions: Staphylococcus aureus, 500 μg/mL, '/' = no zone, read-out: Zone of inhibition
Procedure, shortened: (§2)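 Kirby-Bauer per CLSI 2017: 1 in 200 dilutions of overnight cultures (LB for Gram-negatives, TSB for Gram-positives) spread on Mueller-Hinton agar. Discs loaded with 50 μL antibiotic were added and plates incubated 24 h at 37 °C. Zone of inhibition recorded.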

[4] = system: MSSA 476; experiment: Disc diffusion (Kirby-Bauer), zone of inhibition; format: cell-based, Staphylococcus aureus; conditions: Staphylococcus aureus, 500 μg/mL, '/' = no zone, read-out: Zone of inhibition
Procedure, shortened: as §2

[5] = system: Escherichia coli DH5α; experiment: Disc diffusion (Kirby-Bauer), zone of inhibition; format: cell-based; conditions: Escherichia coli DH5α; 500 μg/mL; '/' = no zone; read-out: Zone of inhibition
Procedure, shortened: as §2

[6] = system: Staphylococcus aureus 15981; experiment: Disc diffusion (Kirby-Bauer), zone of inhibition; format: cell-based; conditions: Staphylococcus aureus 15981; 500 μg/mL; '/' = no zone; read-out: Zone of inhibition
Procedure, shortened: as §2

[7] = system: various Staphylococcus aureus strains; experiment: Disc diffusion, Staphylococcus aureus strain study; format: cell-based; conditions: Staphylococcus aureus, 500 μg/mL
Source text: At this point in the study it was decided to perform a disc diffusion assay study on 50 S. aureus strains. […] Moreover, by employing a range of mutant strains of S. aureus with specific gene-deletions, it was believed that if particular strains were resistant to the lead compounds, it could provide insights on the likely protein target of the lead antibiotics. However, all six of the compounds utilized in this study were able to inhibit growth of all 50 strains of S. aureus assayed at the chosen concentration of 500 μg/mL concentration (Table 5).
E. coli DH5α, P. aeruginosa PA01 and the 53 S. aureus strains were recovered from frozen (−80° C.) glycerol (15% v/v) stocks on Lysogeny agar (LA)—Gram negative and trypticase soy agar (TSA)—plates at 37° C. for 24 hours. Single colonies were placed in either 3 mL Lysogeny broth (LB)—Gram negative or trypticase soy broth (TSB)—Gram positive and incubated at 37° C., 250 rpm for 18 hours.
The antibiotic activity was determined using a Kirby-Bauer method according to Clinical Standard Laboratory Institute (CSLI) Guidelines (2017). Briefly, 180 μL of a 1 in 200 dilution (in LB or TSB) of overnight cultures of selected Gram negative and Gram positive bacteria were applied to an agar plate containing the solid growth medium, Mueller-Hinton agar (MHA). Sterile discs, inoculated with 50 μL of antibiotic, were first added to the agar plate before the plates were incubated for 24 hours at 37° C. Following incubation, the zone of inhibition (if it existed) was recorded.

[8] = system: HEK293 cells; experiment: Cytotoxicity assay, resazurin (CO-ADD)
Procedure: The cytotoxicity studies were performed by CO-ADD (The Community for Open Antimicrobial Drug Discovery), funded by the Wellcome trust (UK) and the University of Queensland, Australia.^(28) In this study, the compounds were screened against a human embryonic kidney cell line, HEK293, at a set concentration of 32 μg/mL.
DMEM supplemented with 10% FBS was used as growth media and the cells were incubated together with the compounds for 20 hours at 37° C. in 5% CO2.
Cytotoxicity (or cell viability) was measured by fluorescence, excitation: 560/10 nm, emission: 590/10 nm (F560/590), after addition of 5 μL of 25 μg/mL Resazurin (2.3 μg/mL final concentration) and after incubation for further 3 h at 37° C. in 5% CO2. The fluorescence intensity was measured using a Tecan M1000 Pro monochromator plate reader, using automatic gain calculation CC50 (concentration at 50% cytotoxicity) were calculated by curve fitting the inhibition values vs. log(concentration) using sigmoidal dose-response function, with variable fitting values for bottom, top and slope. The curve fitting was implemented using Pipeline Pilot's dose-response component.

[9] = system: red blood cells; experiment: Hemolysis assay (CO-ADD); format: cell-based; conditions: 32 μg/mL highest concentration tested
Source text: A problem often encountered by emerging drugs is hemolysis, also known as drug-induced immune hemolytic anemia.

Work on `[C-]#[N+]C=Cc1ccc(O)c(Br)c1` [Compound 14] yielded an MIC [1] of 44 µg/mL (≈ 196 µM), an MIC [2] of 242 µg/mL (≈ 1080 µM) and a zone of inhibition at 500 µg/mL [3] of 24 mm. The zone of inhibition at 500 µg/mL [4] was 24 mm, the zone of inhibition at 500 µg/mL [5] was 26 mm and the zone of inhibition at 500 µg/mL [6] was 28 mm. The zone of inhibition at 500 µg/mL ([7]; strain ASARM 61) was 22 mm, the zone of inhibition at 500 µg/mL ([7]; strain ASARM 70) was 20 mm and the zone of inhibition at 500 µg/mL ([7]; strain ASARM 71) was 22 mm. The zone of inhibition at 500 µg/mL ([7]; strain ASARM 72) was 20 mm, the zone of inhibition at 500 µg/mL ([7]; strain ASARM 73) was 20 mm and the zone of inhibition at 500 µg/mL ([7]; strain ASARM 75) was 20 mm. For the same molecule, the zone of inhibition at 500 µg/mL ([7]; strain ASARM 76) was 22 mm, the zone of inhibition at 500 µg/mL ([7]; strain ASARM 77) was 22 mm and the zone of inhibition at 500 µg/mL ([7]; strain ASARM 79) was 24 mm. The zone of inhibition at 500 µg/mL ([7]; strain ASARM 80) was 25 mm, the zone of inhibition at 500 µg/mL ([7]; strain EOE 3) was 20 mm and the zone of inhibition at 500 µg/mL ([7]; strain EOE 23) was 22 mm. The zone of inhibition at 500 µg/mL ([7]; strain EOE 30) was 22 mm, the zone of inhibition at 500 µg/mL ([7]; strain EOE 35) was 18 mm and the zone of inhibition at 500 µg/mL ([7]; strain EOE 41) was 20 mm. It also gave a zone of inhibition at 500 µg/mL ([7]; strain EOE 42) of 18 mm, a zone of inhibition at 500 µg/mL ([7]; strain EOE 45) of 20 mm and a zone of inhibition at 500 µg/mL ([7]; strain EOE 52) of 25 mm. The zone of inhibition at 500 µg/mL ([7]; strain EOE 54) was 19 mm, the zone of inhibition at 500 µg/mL ([7]; strain EOE 57) was 20 mm and the zone of inhibition at 500 µg/mL ([7]; strain S139_7_7) was 20 mm. For the same molecule, the zone of inhibition at 500 µg/mL ([7]; strain S197_1_1) was 25 mm, the zone of inhibition at 500 µg/mL ([7]; strain S197_1_8) was 22 mm and the zone of inhibition at 500 µg/mL ([7]; strain S197_1_9) was 22 mm. It also gave a zone of inhibition at 500 µg/mL ([7]; strain S197_1_10) of 22 mm, a zone of inhibition at 500 µg/mL ([7]; strain S295_1_1) of 22 mm and a zone of inhibition at 500 µg/mL ([7]; strain S295_1_2) of 14 mm. The zone of inhibition at 500 µg/mL ([7]; strain S295_1_3) was 20 mm, the zone of inhibition at 500 µg/mL ([7]; strain S364_5_11) was 24 mm and the zone of inhibition at 500 µg/mL ([7]; strain S364_5_12) was 24 mm. The zone of inhibition at 500 µg/mL ([7]; strain Sa_TPS 3026) was 16 mm, the zone of inhibition at 500 µg/mL ([7]; strain Sa_TPS 3072) was 18 mm and the zone of inhibition at 500 µg/mL ([7]; strain Sa_TPS 3092) was 24 mm. It also gave a zone of inhibition at 500 µg/mL ([7]; strain Sa_TPS 3097) of 18 mm, a zone of inhibition at 500 µg/mL ([7]; strain Sa_TPS 3103) of 26 mm and a zone of inhibition at 500 µg/mL ([7]; strain Sa_TPS 3104) of 22 mm. For the same molecule, the zone of inhibition at 500 µg/mL ([7]; strain Sa_TPS 3106) was 20 mm, the zone of inhibition at 500 µg/mL ([7]; strain Sa_TPS 3118) was 18 mm and the zone of inhibition at 500 µg/mL ([7]; strain Sa_TPS 3133) was 18 mm. The zone of inhibition at 500 µg/mL ([7]; strain Sa_TPS 3134) was 18 mm, the zone of inhibition at 500 µg/mL ([7]; strain USFL 008) was 17 mm and the zone of inhibition at 500 µg/mL ([7]; strain USFL 009) was 16 mm. The zone of inhibition at 500 µg/mL ([7]; strain USFL 012) was 20 mm, the zone of inhibition at 500 µg/mL ([7]; strain USFL 016) was 18 mm and the zone of inhibition at 500 µg/mL ([7]; strain USFL 018) was 18 mm. It also gave a zone of inhibition at 500 µg/mL ([7]; strain USFL 020) of 16 mm, a zone of inhibition at 500 µg/mL ([7]; strain USFL 021) of 18 mm and a zone of inhibition at 500 µg/mL ([7]; strain USFL 028) of 18 mm. For the same molecule, the zone of inhibition at 500 µg/mL ([7]; strain USFL 035) was 19 mm, the zone of inhibition at 500 µg/mL ([7]; strain USFL 054) was 18 mm and the “Concentration toxic to HEK 293 cells” value ([8]; HEK 293) was over 32000 ng/mL. For the same molecule, the “toxicity towards the HEK293 cell line (in words)” value ([8]; set concentration of 32 μg/mL) was “no toxicity” and the “Hemolytic activity (HC10)” value [9] was over 32 µg/mL.
